≈ marks a conversion by molar mass, not a printed value. Like-named read-outs stand apart in the source and are kept apart here. Values belong to the compound of their own block, whether it stands above or below them.
Key:
Penicillium commune = experiment: Antimycotic activity in vitro, series dilution test; format: cell-based; conditions: 28° C, 24 to 96 hours, serum not stated, read-out: Minimum Inhibitory Concentration
Protocol: (§1) Determination of the antimycotic spectrum of activity in vitro by the series dilution test.
(§2) The nutrient media used were Sabouraud's milieu d'epreuve for dermatophytes and molds and meat broth-glucose bouillon for blastomycetes and biphase fungi.
(§3) The incubation temperature was 28° C and the incubation time was 24 to 96 hours.

Aspergillus niger = experiment: as above; format: cell-based; conditions: 28° C, 24 to 96 hours, read-out: Minimum Inhibitory Concentration
Protocol: as §1, §2, §3

Microsporon canis = experiment: as above; format: cell-based; conditions: 28° C, 24 to 96 hours; serum not stated; read-out: Minimum Inhibitory Concentration
Protocol: as §1, §2, §3

[1] = tested on: Trichophyton mentagrophytes; experiment: Topical application in experimental trichophytosis of guinea pigs; format: in vivo; set-up: key: ++: slight action = reduction of symptons of the infection; +++: action = rapid healing of the infection; ++++: good action = complete suppression of symptoms of the infection; conditions: 1% strength solution, topically for 11 to 14 days
Text: a. Topical application in experimental trichophytosis of guinea pigs (excitant: Trichophyton mentagrophytes)
A 1% strength solution of the active compound in a dimethylsulphoxide/glycerine/water mixture (1:3:6) or in polyethylene glycol 400 was applied topically for 11 to 14 days after the trichophytosis had been caused experimentally.

[2] = tested on: Trichophyton mentagrophytes; experiment: Antimycotic activity in vitro, series dilution test; format: cell-based; conditions: 28° C, 24 to 96 hours, read-out: Minimum Inhibitory Concentration
Protocol: as §1, §2, §3

Candida albicans = experiment: as above; format: cell-based; conditions: 28° C, 24 to 96 hours, read-out: Minimum Inhibitory Concentration
Protocol: as §1, §2, §3

Compound: Cc1cc(Cl)ccc1C(c1ccccc1)(c1ccccc1)n1ccnc1 [Example 4 (from Table 1), 1-(2-Methyl-4-chlorophenyl-diphenyl)-methyl-imidazole]
MIC (Penicillium commune): 4 µg/mL (≈ 11.1 µM) | MIC (Aspergillus niger; n.s. = no added serum): 1 µg/mL (≈ 2.79 µM) | MIC (Aspergillus niger; w.s. = with 30% serum added): 10 µg/mL (≈ 27.9 µM) | MIC (Microsporon canis): 4 µg/mL (≈ 11.1 µM)

Compound: Cc1ccc(C)c(C(c2ccccc2)(c2ccccc2)n2ccnc2)c1 [Example 3 (from Table 1), 1-(2,5-Dimethylphenyl-diphenyl)-methyl-imidazole]
MIC (Penicillium commune): 4 µg/mL (≈ 11.8 µM) | MIC (Aspergillus niger; n.s. = no added serum): 1 µg/mL (≈ 2.95 µM) | MIC (Aspergillus niger; w.s. = with 30% serum added): 40 µg/mL (≈ 118 µM) | MIC (Microsporon canis): 4 µg/mL (≈ 11.8 µM)

Compound: Cc1ccc(C(c2ccccc2)(c2ccccc2)n2ccnc2)c(C)c1 [Example 2]
Action in trichophytosis of guinea pigs [1]: ++++ | MIC ([2]; n.s. = no added serum): < 1 µg/mL | MIC ([2]; w.s. = with 30% serum added): 10 µg/mL (≈ 29.5 µM) | MIC (Penicillium commune): 100 µg/mL (≈ 295 µM) | MIC (Candida albicans; n.s. = no added serum): 1 µg/mL (≈ 2.95 µM) | MIC (Aspergillus niger; n.s. = no added serum): 1 µg/mL (≈ 2.95 µM) | MIC (Aspergillus niger; w.s. = with 30% serum added): 4 µg/mL (≈ 11.8 µM) | MIC (Microsporon canis): 4 µg/mL (≈ 11.8 µM)

Compound: Cc1cccc(C(c2ccccc2)(c2ccccc2)n2ccnc2)c1C [Example 1 (from Table 1), 1-(2,3-dimethylphenyl-diphenyl)-methyl-imidazole]
MIC (Penicillium commune): < 1 µg/mL | MIC (Microsporon canis): 4 µg/mL (≈ 11.8 µM)

Now from value to compound, other results behind:

MIC ([2]; n.s. = no added serum): < 1 µg/mL | MIC ([2]; w.s. = with 30% serum added): 4 µg/mL (≈ 10.5 µM) | MIC (Penicillium commune): 4 µg/mL (≈ 10.5 µM) | MIC (Candida albicans; n.s. = no added serum): 1 µg/mL (≈ 2.64 µM) | MIC (Aspergillus niger; n.s. = no added serum): < 1 µg/mL | MIC (Aspergillus niger; w.s. = with 30% serum added): 10 µg/mL (≈ 26.4 µM) | MIC (Microsporon canis): < 1 µg/mL
Compound: Clc1cccc(C(c2ccccc2)(c2ccccc2)n2ccnc2)c1Cl [Example 6]
Action in trichophytosis of guinea pigs [1]: ++

MIC (Penicillium commune): 10 µg/mL (≈ 29.5 µM) | MIC (Candida albicans; w.s. = with 30% serum added): 10 µg/mL (≈ 29.5 µM) | MIC (Aspergillus niger; n.s. = no added serum): < 1 µg/mL | MIC (Aspergillus niger; w.s. = with 30% serum added): 10 µg/mL (≈ 29.5 µM) | MIC (Microsporon canis): 4 µg/mL (≈ 11.8 µM)
Compound: Cc1ccccc1C(c1ccccc1)(c1ccccc1C)n1ccnc1 [Example 8 (from Table 1), 1-(2-Methylphenyl-2'-methylphenyl-phenyl)-methyl-imidazole]

MIC (Penicillium commune): 1 µg/mL (≈ 2.64 µM) | MIC (Aspergillus niger; n.s. = no added serum): < 1 µg/mL | MIC (Microsporon canis): < 1 µg/mL
Compound: Clc1ccccc1C(c1ccccc1)(c1ccccc1Cl)n1ccnc1 [Example 9 (from Table 1), 1-(2-Chlorophenyl-2'-chlorophenyl-phenyl) -methyl-imidazole]

MIC (Penicillium commune): 4 µg/mL (≈ 10.5 µM) | MIC (Aspergillus niger; n.s. = no added serum): < 1 µg/mL | MIC (Aspergillus niger; w.s. = with 30% serum added): 4 µg/mL (≈ 10.5 µM) | MIC (Microsporon canis): < 1 µg/mL
Compound: Clc1cccc(Cl)c1C(c1ccccc1)(c1ccccc1)n1ccnc1 [Example 7 (from Table 1), 1-(2,6-Dichlorophenyl-diphenyl)-methyl-imidazole]

Reference: patent US4052409A, “Disubstituted triphenylmethylimidazoles” (Bayer Aktiengesellschaft, priority 1972, dated 1977)
